Results taken from patent US7981512B2, “Organic polymer-magnetic particles and process for producing same” (JSR Corporation, priority 2006, dated 2011).

Conditions: distilled water
Experimental: In the invention, the solubility in water at 25° C. of the monomer is determined by slowly adding the monomer in question to distilled water at 25° C. while stirring until the monomer separates from the water. The amount (% by mass) of the monomer in the solution immediately before separation is defined as the solubility.

## C=C(C)C(=O)O [methacrylic acid]
  solubility in water at 25° C.: 100 % by mass

## C=C(C)C(=O)OCCOC(=O)c1ccccc1C(=O)O [2-methacryloyloxyethyl phthalate]
  solubility in water at 25° C.: less than 0.2 % by mass
